Reference: the supplement of paper PMC10307832

Legend:
Assay in all cases: relative viability (nuclei count vs DMSO), 5 days (fraction); higher = more cells survive
R406 + AZD7762 = compound: COc1cc(Nc2ncc(F)c(Nc3ccc4c(n3)NC(=O)C(C)(C)O4)n2)cc(OC)c1OC [R406] + NC(=O)Nc1cc(-c2cccc(F)c2)sc1C(=O)N[C@H]1CCCNC1 [AZD7762] (partner 0.2 µM)
How it was run: (§1)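 Relative viability was taken as the ratio of nuclei in treated wells to nuclei in vehicle wells. Lung cancer cell lines in 1536-well plates received compounds by pin tool one day after seeding, either one drug alone or a fixed anchor-drug dose plus five library-drug doses (not always all listed) in √10 steps. Nuclei were counted on 4× images after 5 days of treatment, and values are medians of duplicate plates.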

R406 + Pemetrexed = compound: COc1cc(Nc2ncc(F)c(Nc3ccc4c(n3)NC(=O)C(C)(C)O4)n2)cc(OC)c1OC [R406] + Nc1nc2[nH]cc(CCc3ccc(C(=O)N[C@@H](CCC(=O)O)C(=O)O)cc3)c2c(=O)[nH]1 [Pemetrexed] (partner 0.2 µM)
How it was run: as §1

Daporinad + Phenformin = compound: O=C(/C=C/c1cccnc1)NCCCCC1CCN(C(=O)c2ccccc2)CC1 [Daporinad] + N=C(N)NC(=N)NCCc1ccccc1 [Phenformin] (partner 250 µM)
How it was run: as §1

R406 + Tozasertib = compound: COc1cc(Nc2ncc(F)c(Nc3ccc4c(n3)NC(=O)C(C)(C)O4)n2)cc(OC)c1OC [R406] + Cc1cc(Nc2cc(N3CCN(C)CC3)nc(Sc3ccc(NC(=O)C4CC4)cc3)n2)n[nH]1 [Tozasertib] (partner 0.1 µM)
How it was run: as §1

Cell Line | relative viability (R406 + AZD7762; first compound 0.08 µM) | relative viability (R406 + AZD7762; first compound 0.253 µM) | relative viability (R406 + AZD7762; first compound 0.8 µM) | relative viability (R406 + AZD7762; first compound 2.53 µM) | relative viability (R406 + AZD7762; first compound 8 µM) | relative viability (R406 + Pemetrexed; first compound 0.08 µM) | relative viability (R406 + Pemetrexed; first compound 0.253 µM) | relative viability (R406 + Pemetrexed; first compound 0.8 µM) | relative viability (R406 + Pemetrexed; first compound 2.53 µM) | relative viability (R406 + Pemetrexed; first compound 8 µM) | relative viability (Daporinad + Phenformin; first compound 0.0005 µM) | relative viability (Daporinad + Phenformin; first compound 0.001581 µM) | relative viability (Daporinad + Phenformin; first compound 0.005 µM) | relative viability (Daporinad + Phenformin; first compound 0.01581 µM) | relative viability (R406 + Tozasertib; first compound 0.08 µM) | relative viability (R406 + Tozasertib; first compound 0.253 µM) | relative viability (R406 + Tozasertib; first compound 0.8 µM) | relative viability (R406 + Tozasertib; first compound 2.53 µM) | relative viability (R406 + Tozasertib; first compound 8 µM)
RERF-LC-KJ | 1 | 1.23 | 1.29 | 0.692 | 0.988 | 0.457 | 0.487 | 0.473 | 0.458 | 0.381 | 0.376 | 0.443 | 0.537 | 0.477 | 0.463 | 0.653 | 0.447 | 0.481 | 0.402
SW 900 | 0.536 | 0.814 | 0.787 | 0.232 | 0.146 | 0.486 | 0.486 | 0.532 | 0.129 | 0.0856 | 0.518 | 0.674 | 0.798 | 0.595 | 0.49 | 0.584 | 0.459 | 0.515 | 0.44
